Key:
[1] = system: hiPSC; assay: Analysis of components of defined media for hiPSC cardiac differentiation (contraction score); assay type: cell-based, human; parameters: 9 components subtracting: cardiac differentiation score / 2 components subtracting: cardiac differentiation score: key: 0: no cardiac differentiation or cell death; +: some contraction; ++: >50% contraction; +++: >75% contraction; conditions: for 21 components subtracting: cardiac differentiation score: a) each of the 21 components of B27 without insulin subtracted one at a time, score of medium lacking the component; for 10 components subtracting: cardiac differentiation score: b) second medium of 10 essential components, each subtracted one at a time; for 9 components subtracting: cardiac differentiation score: c) 9-component medium; for 9 components subtracting: cardiac differentiation score / 9 components (with 4 at 10x) subtracting: cardiac differentiation score / 6 components subtracting: cardiac differentiation score: each component subtracted; for 9 components (with 4 at 10x) subtracting: cardiac differentiation score: e) third medium with increased concentrations; for 6 components subtracting: cardiac differentiation score: f) fourth 6-component medium
From the text: Development of a Chemically Defined Cardiac Differentiation Platform. We first generated eleven pluripotent hiPSC lines under chemically defined conditions (FIG. 7) on a chemically synthesized vitronectin peptide substrate, with nonenzymatic passaging (FIG. 8). […] To formulate a chemically defined differentiation protocol, we concentrated on the observation that three unrelated media formations are capable of supporting growth factor-based monolayer cardiac differentiation: RPMI+B27-ins, supplemented StemPro-34, and LI-APEL (Table 5). […] Beginning with the 21 components of B27, we subtracted one component at a time and assessed for continued high efficiency differentiation (Table 6a-c) and also assessed components from two other two media (supplemented StemPro-34 and LI-APEL) that yielded benefits (Table 6d-f). We concluded that hiPSC cardiac differentiation was successful in a media consisting of […]: RPMI 1640 basal medium, L-ascorbic acid 2-phosphate (AA 2-P), and BSA (Table 6g).
Other additions to cardiac differentiation media tested were 10.7 μg/mL recombinant human transferrin, […], 1 μg/mL linoleic acid, 1 μg/mL linolenic acid, 2 ng/mL triiodo-l-thyronine, 2 μg/mL L-carnitine, 1 μg/mL D,L-alpha-tocopherol acetate, 100 ng/mL retinol acetate, 1 μg/mL ethanolamine, 20 ng/mL corticosterone, 9 ng/mL progesterone, 47 ng/mL lipoic acid, 100 ng/mL retinol, 1 μg/mL D,L-alpha-tocopherol, 100 ng/mL biotin, 2.5 ug/mL catalase, 2.5 μg/mL glutathione, 2.5 μg/mL superoxide dismutase, 2 μg/mL L-carnitine, 15 μg/mL D(+)-galactose, 16.1 μg/mL putrescine, 450 μM 1-thioglycerol, 55 μM 2-mercaptoethanol, 64 μg/mL L-ascorbic acid 2-phosphate (all from Sigma-Aldrich).

[2] = system: hPSC; assay: Directed cardiac differentiation of hPSC in minimal media (Example 1); assay type: cell-based, human; conditions: for further enhancement of differentiation by pathway inhibitors: small molecule inhibitors at the later stage of differentiation; for Wnt signaling antagonist effective for cardiac differentiation: at a concentration of 5 μM
Experimental: Directed Cardiac Differentiation Procedure. (volumes provided are for a T25 flask; adjust volumes proportionately for larger vessels) Day 0 (day 4 after passage): Aspirate medium, and replace with 5 mL of minimal media (CDM3, D3, D4, or D11) supplemented with 6 uM of CHIR-99021 (CHIR-99021 can be used at 4-15 μM). Place flasks in a regular ambient O2, 5% CO2 incubator. Day 2: 48 h. Aspirate media and replace with 5 mL of minimal media (CDM3, D3, D4, or D11). Day 3: 72 h. Aspirate media and replace with 5 mL of minimal media (CDM3, D3, D4, or D11) supplemented with 0.5 uM C59 (C59 may be used at 0.5-5 μM). Day 5: Aspirate media and replace with 5 mL of minimal media (CDM3, D3, D4, or D11). From day 5 onwards media should be changed every 2 days with minimal media (CDM3, D3, D4, or D11).
From day 0 to day 2 (d0-d2), minimal media (CDM3, D3, D4, or D11) was supplemented with the Wnt signaling agonist CHIR-99021 (6-10 uM 48 h, d0-d2), which triggers canonical Wnt/β-Catenin signaling that leads to the subsequent up-regulation of BMP4 and activin A. Media is then exchanged to non-supplemented minimal media (CDM3, D3, D4, or D11) for 1 day followed by contact with a Wnt signaling antagonist (e.g., C59: 0.5-5 uM, 48 h, d3-d5) for 2 days. At day 5, 7, and 9 minimal media (CDM3, D3, D4, or D11) is exchanged for fresh media, and contraction begins between d7 and d10. At day 11, media is exchanged to a variant of minimal media (CDM3, D3, D4, or D11) without […] that results in the depletion of non-cardiomyocytes due to a lack of glycogen stores. Media was exchanged on day 13 for fresh media lacking glucose. At day 15, media was exchanged for fresh minimal media (CDM3, D3, D4, or D11) (containing glucose).
The presence of cardiomyocytes was verified in a number of different ways, for example: flow cytometry of cells contacted with an antibody specific for a cardiomyocyte marker (TNNT2); imaging of cells stained with antibodies specific for α-Sarcomeric actin (red) and Troponin T (TNNT2); electrophysiological profiling; and evaluating responsiveness to known cardioactive drugs (e.g., Norepinephrine). Assays performed on multiple different cell lines (including several hESC lines and over 30 hiPSC lines) confirmed that the subject methods are highly consistent and highly efficient, as very little variability was observed among the different cell lines.

[3] = d) component at 10 x concentration

Molecule: O=C(O)CCCC[C@@H]1CCSS1 (racemic) [Lipoic acid]
- 21 components subtracting: cardiac differentiation score [1]: ++ (>50% contraction)

Molecule: NC(=O)c1ccc(-c2nc(-c3ccc4c(c3)OCO4)c(-c3ccccn3)[nH]2)cc1 [B8431542]
- further enhancement of differentiation by pathway inhibitors [2]: did not further enhance the differentiation

Molecule: O=C(O)CCCC[C@@H]1SC[C@@H]2NC(=O)N[C@@H]21 [Biotin (vit B7), Biotin]
- 21 components subtracting: cardiac differentiation score [1]: ++ (>50% contraction)

Molecule: C[C@]12C[C@H](O)[C@H]3[C@@H](CCC4=CC(=O)CC[C@@]43C)[C@@H]1CC[C@@H]2C(=O)CO [Corticosterone]
- 21 components subtracting: cardiac differentiation score [1]: 0
- 10 components subtracting: cardiac differentiation score [1]: ++ (>50% contraction)

Molecule: O=C[C@H](O)[C@@H](O)[C@@H](O)[C@H](O)CO [D(+)-galactose]
- 21 components subtracting: cardiac differentiation score [1]: ++ (>50% contraction)

Molecule: Cc1c(C)c2c(c(C)c1O)CCC(C)(CCCC(C)CCCC(C)CCCC(C)C)O2 [D,L-a-tocopherol (vit E), D,L-a-tocopherol]
- 21 components subtracting: cardiac differentiation score [1]: ++ (>50% contraction)

Molecule: CC(=O)Oc1c(C)c(C)c2c(c1C)CCC(C)(CCCC(C)CCCC(C)CCCC(C)C)O2 [D,L-a-tocopherol acetate]
- 21 components subtracting: cardiac differentiation score [1]: 0
- 10 components subtracting: cardiac differentiation score [1]: 0
- 9 components subtracting: cardiac differentiation score [1]: 0
- 9 components with the addition of: cardiac differentiation score [1, 3]: +++ (>75% contraction)
- 9 components (with 4 at 10x) subtracting: cardiac differentiation score [1]: +++ (>75% contraction)

Molecule: NCCO [Ethanolamine]
- 21 components subtracting: cardiac differentiation score [1]: ++ (>50% contraction)

Molecule: N[C@@H](CCC(=O)N[C@@H](CS)C(=O)NCC(=O)O)C(=O)O [Glutathione (reduced)]
- 21 components subtracting: cardiac differentiation score [1]: ++ (>50% contraction)

Molecule: C[C@]12CCC(=O)C=C1CC[C@@H]1[C@@H]2[C@@H](O)C[C@@]2(C)[C@H]1CC[C@]2(O)C(=O)CO [Hydrocortisone]
- 9 components with the addition of: cardiac differentiation score ([1]; d) addition of components from the other media formulae of Table 5): +

Molecule: O=C1[C@H](Cc2ccc(O)cc2)N2C(=O)CCN(C(=O)NCc3ccccc3)[C@H]2CN1Cc1cccc2ccccc12 [ICG-001, (6S,9aS)-6-(4-hydroxybenzyl)-N-benzyl-8-(naphthalen-1-ylmethyl)-4,7-diaxo-hexahydro-2H-pyrazino[1,2-a]pyrimidine-1(6H)-carboxamide]
- Wnt signaling antagonist effective for cardiac differentiation [2]: not found to be effective

Molecule: Cc1ccc2nc(NC(=O)CSc3nc4c(c(=O)n3-c3ccccc3)SCC4)sc2c1 [IWP-2, N-(6-Methyl-2-benzothiazoyl)-2-[(3,4,6,7-tetrahydro-4-oxo-3-phenylthieno[3,2-d]pyrimidin-2-yl)thio]-acetamide]
- Wnt signaling antagonist effective for cardiac differentiation [2]: effective

Molecule: COc1ccccc1-n1c(SCC(=O)Nc2nc3ccc(C)cc3s2)nc2c(c1=O)SCC2 [IWP-4, 2-(3,4,6,7-tetrahydro-3-(2-methoxyphenyl)-4-oxothieno[3,2-d]pyrimidin-2-ylthio)-N-(6-methylbenzo[d]thiazol-2-yl)acetamide]
- Wnt signaling antagonist effective for cardiac differentiation [2]: effective

Molecule: O=C(Nc1cccc2cccnc12)c1ccc(N2C(=O)C3C4C=CC(C4)C3C2=O)cc1 (centres unmarked) [IWR-1, 4-(1,3,3a,4,7,7a-Hexahydro-1,3-dioxo-4,7-methano-2H-isoindol-2-yl)-N-8-quinolinyl-Benzamide]
- Wnt signaling antagonist effective for cardiac differentiation [2]: effective

Molecule: C[N+](C)(C)C[C@H](O)CC(=O)[O-] [L-carnitine]
- 21 components subtracting: cardiac differentiation score [1]: 0
- 10 components subtracting: cardiac differentiation score [1]: 0
- 9 components subtracting: cardiac differentiation score [1]: 0
- 9 components with the addition of: cardiac differentiation score [1, 3]: 0

Molecule: c1ccc2c(-c3cnn4cc(-c5ccc(N6CCNCC6)cc5)cnc34)ccnc2c1 [LDN193189]
- further enhancement of differentiation by pathway inhibitors [2]: did not further enhance the differentiation

Molecule: c1ccc(-c2[nH]ncc2-c2ccnc3ccccc23)nc1 [LY364947]
- further enhancement of differentiation by pathway inhibitors [2]: did not further enhance the differentiation

Molecule: CCCCC/C=C\C/C=C\CCCCCCCC(=O)O [Linoleic acid]
- 21 components subtracting: cardiac differentiation score [1]: 0
- 10 components subtracting: cardiac differentiation score [1]: 0
- 9 components subtracting: cardiac differentiation score [1]: 0
- 9 components with the addition of: cardiac differentiation score [1, 3]: +
- 9 components (with 4 at 10x) subtracting: cardiac differentiation score [1]: 0
- 6 components subtracting: cardiac differentiation score [1]: +++ (>75% contraction)

Molecule: CC/C=C\C/C=C\C/C=C\CCCCCCCC(=O)O [Linolenic acid]
- 21 components subtracting: cardiac differentiation score [1]: 0
- 10 components subtracting: cardiac differentiation score [1]: 0
- 9 components subtracting: cardiac differentiation score [1]: 0
- 9 components with the addition of: cardiac differentiation score [1, 3]: +
- 9 components (with 4 at 10x) subtracting: cardiac differentiation score [1]: 0
- 6 components subtracting: cardiac differentiation score [1]: +++ (>75% contraction)

Molecule: CC(=O)[C@H]1CC[C@H]2[C@@H]3CCC4=CC(=O)CC[C@]4(C)[C@H]3CC[C@]12C [Progesterone]
- 21 components subtracting: cardiac differentiation score [1]: ++ (>50% contraction)

Molecule: NCCCCN [Putrescine]
- 21 components subtracting: cardiac differentiation score [1]: ++ (>50% contraction)

Molecule: CC(=O)OC/C=C(C)/C=C/C=C(C)/C=C/C1=C(C)CCCC1(C)C [Retinol acetate (vit A), Retinol acetate]
- 21 components subtracting: cardiac differentiation score [1]: 0
- 10 components subtracting: cardiac differentiation score [1]: 0
- 9 components subtracting: cardiac differentiation score [1]: 0
- 9 components with the addition of: cardiac differentiation score [1, 3]: +++ (>75% contraction)
- 9 components (with 4 at 10x) subtracting: cardiac differentiation score [1]: +++ (>75% contraction)

Molecule: CC1=C(/C=C/C(C)=C/C=C/C(C)=C/CO)C(C)(C)CCC1 [Retinol, all trans (vit. A), Retinol, all trans]
- 21 components subtracting: cardiac differentiation score [1]: ++ (>50% contraction)

Molecule: C[S+]([O-])c1ccc(-c2nc(-c3ccncc3)c(-c3ccc(F)cc3)[nH]2)cc1 (centres unmarked) [SB203580]
- further enhancement of differentiation by pathway inhibitors [2]: did not further enhance the differentiation

Molecule: O=[Se](O)O [Sodium selenite]
- 21 components subtracting: cardiac differentiation score [1]: 0
- 10 components subtracting: cardiac differentiation score [1]: 0
- 9 components subtracting: cardiac differentiation score [1]: 0
- 9 components with the addition of: cardiac differentiation score [1, 3]: +++ (>75% contraction)
- 6 components subtracting: cardiac differentiation score [1]: +++ (>75% contraction)

Molecule: N[C@@H](Cc1cc(I)c(Oc2ccc(O)c(I)c2)c(I)c1)C(=O)O [T3 (triiodol-l-thyronine), triiodol-l-thyronine]
- 21 components subtracting: cardiac differentiation score [1]: 0
- 10 components subtracting: cardiac differentiation score [1]: 0
- 9 components subtracting: cardiac differentiation score [1]: 0
- 9 components with the addition of: cardiac differentiation score [1, 3]: +++ (>75% contraction)
- 9 components (with 4 at 10x) subtracting: cardiac differentiation score [1]: +++ (>75% contraction)

Molecule: Catalase
- 21 components subtracting: cardiac differentiation score [1]: ++ (>50% contraction)

Molecule: Holo transferrin: B27 component
- 21 components subtracting: cardiac differentiation score [1]: 0
- 10 components subtracting: cardiac differentiation score [1]: 0
- 9 components subtracting: cardiac differentiation score [1]: 0
- 9 components with the addition of: cardiac differentiation score [1, 3]: +
- 6 components subtracting: cardiac differentiation score [1]: +++ (>75% contraction)

— US9234176B2, “Chemically defined production of cardiomyocytes from pluripotent stem cells” (The Board of Trustees of the Leland Stanford Junior …, priority 2012, dated 2016)
